We go through 7 compounds from US20100093756A1, “HETEROARYL SUBSTITUTED THIENO[2,3-d]PYRIMIDINE AND THEIR USE AS ADENOSINE A2a RECEPTOR ANTAGONISTS” (priority 2008, published 2010).

Structures can show the parent of a compound that is named as a salt.

The target in experiment [1] is T1, human adenosine A2a receptor (Homo sapiens, UniProt P29274).
T1 construct: expressed in transfected cells; host or cells: CHO-K1
Nature of the experiment: Adenosine A2a Receptor Functional Assay (A2AGAL2). As to conditions: CHO-K1 cells, cAMP inducible beta-galactosidase reporter, 15 nM NECA agonist challenge. It counts as cell-based. As for the experimental part: Adenosine A2a Receptor Functional Assay (A2AGAL2)
To initiate the functional assay, cryopreserved CHO-K1 cells overexpressing the human adenosine A2a receptor and containing a cAMP inducible beta-galactosidase reporter gene were thawed, centrifuged, DMSO containing media removed, and then seeded with fresh culture media into clear 384-well tissue culture treated plates (BD #353961) at a concentration of 10K cells/well. Prior to assay, these plates were cultured for two days at 37° C., 5% CO2, 90% Rh. On the day of the functional assay, culture media was removed and replaced with 45 uL assay medium (Hams/F-12 Modified (Mediatech #10-080CV) supplemented w/0.1% BSA). Test compounds were diluted and 11 point curves created at a 1000× concentration in 100% DMSO. Immediately after addition of assay media to the cell plates, 50 nL of the appropriate test compound antagonist or agonist control curves were added to cell plates using a Cartesian Hummingbird. Compound curves were allowed to incubate at room temperature on cell plates for approximately 15 minutes before addition of a 15 nM NECA (Sigma E2387) agonist challenge (5 uL volume). A control curve of NECA, a DMSO/Media control, and a single dose of Forskolin (Sigma F3917) were also included on each plate. After additions, cell plates were allowed to incubate at 37° C., 5% CO2, 90% Rh for 5.5-6 hours. After incubation, media was removed, and cell plates were washed 1×50 uL with DPBS w/o Ca & Mg (Mediatech 21-031-CV). Into dry wells, 20 uL of 1× Reporter Lysis Buffer (Promega E3971 (diluted in dH2O from 5× stock)) was added to each well and plates frozen at −20° C. overnight. For β-galactosidase enzyme colorimetric assay, plates were thawed out at room temperature and 20μL 2× assay buffer (Promega) was added to each well. Color was allowed to develop at 37° C., 5% CO2, 90% Rh for 1-1.5 h or until reasonable signal appeared. The calorimetric reaction was stopped with the addition of 60 μL/well 1M sodium carbonate. Plates were counted at 405 nm on a SpectraMax Microplate Reader (Molecular Devices). Data was analyzed in Microsoft Excel and IC/EC50 curves were fit using a standardized macro.

For experiment [2], the target named is T2, human A2a adenosine receptor (Homo sapiens, UniProt P29274).
T2 construct: purchased PerkinElmer RB-HA2a; host or cells: HEK293 plasma membrane
Nature of the experiment: Ligand Binding Assay for Adenosine A2a Receptor (A2A-B). As to conditions: HEK293 cell plasma membrane, radioligand [3H]CGS21680. As for the experimental part: Ligand Binding Assay for Adenosine A2a Receptor (A2A-B)
Ligand binding assay of adenosine A2a receptor was performed using plasma membrane of HEK293 cells containing human A2a adenosine receptor (PerkinElmer, RB-HA2a) and radioligand [^3H]CGS21680 (PerkinElmer, NET1021). Assay was set up in 96-well polypropylene plate in total volume of 200 μL by sequentially adding 20 μL 1:20 diluted membrane, 130 μL assay buffer (50 mM Tris.HCl, pH7.4 10 mM MgCl2, 1 mM EDTA) containing [^3H] CGS21680, 50 μL diluted compound (4×) or vehicle control in assay buffer. Nonspecific binding was determined by […] NECA. Reaction was carried out at room temperature for 2 hours before filtering through 96-well GF/C filter plate pre-soaked in 50 mM Tris.HCl, pH7.4 containing 0.3% polyethylenimine. Plates were then washed 5 times with cold 50 mM Tris.HCl, pH7.4, dried and sealed at the bottom. Microscintillation fluid 30 μL was added to each well and the top sealed. Plates were counted on Packard Topcount for [^3H]. Data was analyzed in Microsoft Excel and GraphPad Prism programs. (Varani, K.; Gessi, S.; Dalpiaz, A.; Borea, P. A. British Journal of Pharmacology, 1996, 117, 1693)

Experiment [3] concerns the target T3, human adenosine A1 receptor (Homo sapiens, UniProt P30542).
T3 construct: expressed in transfected cells; host or cells: CHO-K1
T3 sequence (P30542 1-326): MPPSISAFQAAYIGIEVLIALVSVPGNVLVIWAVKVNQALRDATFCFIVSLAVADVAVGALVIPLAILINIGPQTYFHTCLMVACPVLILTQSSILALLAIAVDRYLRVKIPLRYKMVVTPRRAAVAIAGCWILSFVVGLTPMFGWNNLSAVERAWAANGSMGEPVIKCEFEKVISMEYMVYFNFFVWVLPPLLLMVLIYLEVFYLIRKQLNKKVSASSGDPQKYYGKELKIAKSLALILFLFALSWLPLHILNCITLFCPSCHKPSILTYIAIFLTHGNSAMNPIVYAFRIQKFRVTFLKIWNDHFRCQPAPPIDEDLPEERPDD
Nature of the experiment: Adenosine A1 Receptor Functional Assay (A1GAL2). It counts as cell-based. As to conditions: CHO-K1 cells, cAMP inducible beta-galactosidase reporter, 4 nM r-PIA/1 uM Forskolin agonist challenge. As for the experimental part: Adenosine A1 Receptor Functional Assay (A1GAL2)
To initiate the functional assay, cryopreserved CHO-K1 cells overexpressing the human adenosine A1 receptor and containing a cAMP inducible beta-galactosidase reporter gene were thawed, centrifuged, DMSO containing media removed, and then seeded with fresh culture media into clear 384-well tissue culture treated plates (BD #353961) at a concentration of 10K cells/well. Prior to assay, these plates were cultured for two days at 37° C., 5% CO2, 90% Rh. On the day of the functional assay, culture media was removed and replaced with 45 uL assay medium (Hams/F-12 Modified (Mediatech #10-080CV) supplemented w/0.1% BSA). Test compounds were diluted and 11 point curves created at a 1000× concentration in 100% DMSO. Immediately after addition of assay media to the cell plates, 50 nL of the appropriate test compound antagonist or agonist control curves were added to cell plates using a Cartesian Hummingbird. Compound curves were allowed to incubate at room temperature on cell plates for approximately 15 minutes before addition of a 4 nM r-PIA (Sigma P4532)/1 uM Forskolin (Sigma F3917) agonist challenge (5 uL volume). A control curve of r-PIA in 1 uM Forskolin, a DMSO/Media control, and a single dose of Forskolin were also included on each plate. After additions, cell plates were allowed to incubate at 37° C., 5% CO2, 90% Rh for 5.5-6 hours. After incubation, media was removed, and cell plates were washed 1×50 uL with DPBS w/o Ca & Mg (Mediatech 21-031-CV). Into dry wells, 20 uL of 1× Reporter Lysis Buffer (Promega E3971 (diluted in dH2O from 5× stock)) was added to each well and plates frozen at −20° C. overnight. For β-galactosidase enzyme colorimetric assay, plates were thawed out at room temperature and 20 μL 2× assay buffer (Promega) was added to each well. Color was allowed to develop at 37° C., 5% CO2, 90% Rh for 1-1.5 h or until reasonable signal appeared. The colorimetric reaction was stopped with the addition of 60 μL/well 1M sodium carbonate. Plates were counted at 405 nm on a SpectraMax Microplate Reader (Molecular Devices). Data was analyzed in Microsoft Excel and IC/EC50 curves were fit using a standardized macro.

T1 sequence (P29274 whole entry): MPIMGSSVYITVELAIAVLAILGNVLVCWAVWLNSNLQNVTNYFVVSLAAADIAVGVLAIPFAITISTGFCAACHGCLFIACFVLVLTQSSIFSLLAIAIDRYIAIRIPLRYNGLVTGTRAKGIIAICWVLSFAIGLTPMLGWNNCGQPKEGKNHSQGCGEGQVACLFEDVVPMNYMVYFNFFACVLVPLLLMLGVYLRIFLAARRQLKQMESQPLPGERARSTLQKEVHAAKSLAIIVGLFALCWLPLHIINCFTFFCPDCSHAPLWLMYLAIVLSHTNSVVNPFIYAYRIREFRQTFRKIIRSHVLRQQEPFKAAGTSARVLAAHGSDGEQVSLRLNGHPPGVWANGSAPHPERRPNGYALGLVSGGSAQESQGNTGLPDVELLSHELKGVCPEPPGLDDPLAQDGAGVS
T2 sequence (P29274 whole entry): as above

Take `CC(O)(c1cc2c(N)nc(-c3ccc(C(F)F)o3)nc2s1)c1ncccc1F` (stereo not drawn) [Example 30, 1-[4-Amino-2-(5-difluoromethyl-furan-2-yl)-thieno[2,3-d]pyrimidin-6-yl]-1-(3-fluoro-pyridin-2-yl)-ethanol]: the Ki in experiment [1] is 11.4 nM; in experiment [2], 16.3 nM; in experiment [3], 403 nM.
As to `COc1cccnc1Cc1cc2c(N)nc(-c3ccc(C(F)F)o3)nc2s1` [Example 37, 2-(5-Difluoromethyl-furan-2-yl)-6-(3-methoxy-pyridin-2-ylmethyl)-thieno[2,3-d]pyrimidin-4-ylamine], the inhibition constant Ki is 2.28 nM in experiment [1] and 32.6 nM in experiment [3].
Taken in the same sequence, the figures for `Nc1nc(-c2ccc(C3CC3)o2)nc2sc(Cc3ccccn3)cc12` [Example 20, hydrochloride] were 130 nM and 337 nM.
As to `CC(O)(c1ccccn1)c1cc2c(N)nc(-c3ccc(C(F)F)o3)nc2s1` (stereo not drawn) [Example 36, 1-[4-Amino-2-(5-difluoromethyl-furan-2-yl)-thieno[2,3-d]pyrimidin-6-yl]-1-pyridin-2-yl-ethanol], the Ki was found to be 36 nM in experiment [1] and 267 nM in experiment [3].
The corresponding values for `Cc1ccc(-c2nc(N)c3cc(Cc4ccccn4)sc3n2)o1` [Example 16, 2-(5-Methyl-furan-2-yl)-6-pyridin-2-ylmethyl-thieno[2,3-d]pyrimidin-4-ylamine] are 1.18 nM and 29.9 nM.
The corresponding values for `N#Cc1cccc(-c2nc(N)c3cc(Cc4cccnc4)sc3n2)n1` [Example 21, 6-(4-Amino-6-pyridin-3-ylmethyl-thieno[2,3-d]pyrimidin-2-yl)-pyridine-2-carbonitrile] are 5.25 nM and 28.2 nM.
Taken in the same sequence, the figures for `Nc1nc(-c2ccc(C(F)F)o2)nc2sc(Cc3ccccn3)cc12` [Example 35, 2-(5-Difluoromethyl-furan-2-yl)-6-pyridin-2-ylmethyl-thieno[2,3-d]pyrimidin-4-ylamine] were 4.73 nM and 61.9 nM.
